Assay [1] concerns the target T1, bovine spleen Cathepsin B (Bos taurus, UniProt P07688).
T1 construct: bovine spleen Cathepsin B (SigmaAldrich C6286, ≥10 units/mg protein); purchased SigmaAldrich C6286; host or cells: bovine spleen (tissue-derived)
As to the kind of experiment: Cathepsin B cleavage assay (UHPLC-HRMS Orbitrap analysis). Conditions: for % residual compound, Average %: 37 °C, pH 5.4, 5 μM, triplicate. The format is biochemical. On the procedure: The Cathepsin B cleavage assay was performed by incubating compounds 1–4 at 37 °C under gently shaking conditions in the presence of the active form of Cathepsin B. More specifically, 122.4 μL of an enzyme-activating solution (composed of 7.48 mg of L-cysteine dissolved in 2 mL of a buffer solution containing 20 mM NaOAc, 1 mM EDTA, pH 5.4 to give a final cysteine concentration of 30.88 mM) was mixed with 12.6 μL of enzyme stock solution, previously prepared by solubilization of bovine spleen Cathepsin B (SigmaAldrich C6286, ≥10 units/mg protein) in 1 mL of buffer solution (without cysteine) to give a concentration of enzyme stock solution of 12 units/mL. After the dilution, the final concentration of Cathepsin B was 1.12 u/mL. Then, the diluted enzyme solution was incubated at 37 °C for 15 min to activate Cathepsin B. After 15 min, 6 μL of 117 μM compound solution, previously prepared by diluting 5.85 μL of 1 mM stock solution of the compound in 44.15 μL of dry DMSO (giving a 117 μM solution), was added to the test tube and the cleavage assay solution was incubated at 37 °C under gentle shaking conditions. […] The solutions were then centrifuged for 10 min at 6000 rpm. Blank solutions were prepared for each compound by dilution of 6 μL of a 117 μM compound solution into 135 μL of an enzyme-activating solution. UHPLC-MS analyses were carried out using a Vanquish UHPLC System (Thermo Fisher Scientific) and Orbitrap Exploris 120 (Thermo Fisher Scientific). Thermo Scientific Xcalibur software was used to control the instruments and acquire the data. Freestyle 1.8 software was used for processing the data. UHPLC chromatographic separations were performed on a reversed-phase column Accucore C18 50 × 2.1 mm, 2.6 μm (Thermo Fisher Scientific). A gradient system was used with the mobile phase consisting of solvent A: H2O + 0.05% formic acid and solvent B: acetonitrile. The areas of the peak of compounds 1–4 in the extracted ion chromatogram were used to evaluate the kinetics of the cleavage process. The percentage of residual compound was calculated as the ratio between the areas of the peak of the full compound at the desired time point and in the blank analysis. %Residualcompound=areacompoundatthedesiredtimepoint/areacompoundintheblanksolution×100

Assay [2] has as its target T1, bovine spleen Cathepsin B. As to the kind of experiment: Preliminary Cathepsin B cleavage assay for protocol validation, HPLC vs UHPLC-HRMS. The class given is biochemical. Conditions: for % residual compound, HRMS: UHPLC-HRMS (Orbitrap) detection; for % residual compound, HPLC: analytical HPLC detection. On the procedure:
The Cathepsin B cleavage assay was performed by incubating compounds 1–4 at 37 °C under gently shaking conditions in the presence of the active form of Cathepsin B. More specifically, 122.4 μL of an enzyme-activating solution (composed of 7.48 mg of L-cysteine dissolved in 2 mL of a buffer solution containing 20 mM NaOAc, 1 mM EDTA, pH 5.4 to give a final cysteine concentration of 30.88 mM) was mixed with 12.6 μL of enzyme stock solution, previously prepared by solubilization of bovine spleen Cathepsin B (SigmaAldrich C6286, ≥10 units/mg protein) in 1 mL of buffer solution (without cysteine) to give a concentration of enzyme stock solution of 12 units/mL. After the dilution, the final concentration of Cathepsin B was 1.12 u/mL. Then, the diluted enzyme solution was incubated at 37 °C for 15 min to activate Cathepsin B. After 15 min, 6 μL of 117 μM compound solution, previously prepared by diluting 5.85 μL of 1 mM stock solution of the compound in 44.15 μL of dry DMSO (giving a 117 μM solution), was added to the test tube and the cleavage assay solution was incubated at 37 °C under gentle shaking conditions. Sample aliquots (10 μL) were taken out at 15, 30 min, and 1, 2, 4, and 24 h and quenched with 10 μL of MeOH+1% formic acid. The solutions were then centrifuged for 10 min at 6000 rpm. Blank solutions were prepared for each compound by dilution of 6 μL of a 117 μM compound solution into 135 μL of an enzyme-activating solution. UHPLC-MS analyses were carried out using a Vanquish UHPLC System (Thermo Fisher Scientific) and Orbitrap Exploris 120 (Thermo Fisher Scientific). Thermo Scientific Xcalibur software was used to control the instruments and acquire the data. Freestyle 1.8 software was used for processing the data. UHPLC chromatographic separations were performed on a reversed-phase column Accucore C18 50 × 2.1 mm, 2.6 μm (Thermo Fisher Scientific). A gradient system was used with the mobile phase consisting of solvent A: H2O + 0.05% formic acid and solvent B: acetonitrile. The areas of the peak of compounds 1–4 in the extracted ion chromatogram were used to evaluate the kinetics of the cleavage process. The percentage of residual compound was calculated as the ratio between the areas of the peak of the full compound at the desired time point and in the blank analysis. %Residualcompound=areacompoundatthedesiredtimepoint/areacompoundintheblanksolution×100
Based on the similarity of the Cathepsin B recognized sequence GFLG to GPLG, we inferred that the latter could also be recognized by the same lysosomal enzyme. Therefore, a Cathepsin B cleavage assay for compound 1 was planned, and the experiment was designed to focus on a short incubation time (up to 4 h) to better mimic the fast transient and dynamic environment of drug clearance and activation generally occurring in in vivo conditions. An Orbitrap mass analyzer was chosen to analyze the final incubated solution due to its higher sensitivity compared to traditional HPLC methods, thereby allowing precise evaluation of the drug release kinetics even at low compound concentrations. At first, to validate the designed Orbitrap-protocol over the HPLC protocols generally reported in the literature, we initially performed the cleavage assay on compound 4 containing the VA sequence, for which the recognition by the Cathepsin B enzyme is well documented. ,− For instance, compound 4 was incubated at 37 °C with a sodium acetate buffer solution (final concentration of 4: 5 μM) containing the active form of the Cathepsin B enzyme, and diluted aliquots at 0–30–60–120 and 240 min were collected and analyzed by a UHPLC-Orbitrap instrument and, in parallel, by analytical HPLC. As shown in Figure S26 of the Supporting Information, the degradation of the VA-based compound 4 can be appreciated from both analyses; however, an expected remarkable difference between the two methods was noted regarding the final concentration of the compound 4 at the end of the experiment. […]

The text below walks through data of article PMC12444563 (ACS Omega, 2025).

As for `CC(=O)O[C@H]1C(=O)[C@@]2(C)[C@H]([C@H](OC(=O)c3ccccc3)[C@]3(O)C[C@H](OC(=O)[C@H](OC(=O)N(C)CCN(C)C(=O)OCc4ccc(NC(=O)[C@H](C)NC(=O)[C@@H](NC(=O)OCC5c6ccccc6-c6ccccc65)C(C)C)cc4)[C@@H](NC(=O)c4ccccc4)c4ccccc4)C(C)=C1C3(C)C)[C@]1(OC(C)=O)CO[C@@H]1C[C@@H]2O` [Compound 4, Fmoc-VA-PABC-diamine-PTX], the “% residual compound, Average %” value in assay [1] (2 min incubation with Cathepsin B) was determined as 98.31%; in assay [1] (15 min incubation with Cathepsin B) it was 89.84%; in assay [1] (30 min incubation with Cathepsin B), 76.32%; in assay [1] (60 min incubation with Cathepsin B), 72.91%; in assay [1] (120 min incubation with Cathepsin B) it was 58.50%. For the same compound, the “% residual compound, % R1” value is recorded as 105.08% in assay [1] (replicate R1, 2 min); 98.99% in assay [1] (replicate R1, 15 min); 79.84% in assay [1] (replicate R1, 30 min); 76.95% in assay [1] (replicate R1, 60 min); 61.83% in assay [1] (replicate R1, 120 min); 68.01% in assay [1] (replicate R1, 240 min). Also, the “% residual compound, % R3” value in assay [1] (replicate R3, 2 min) amounted to 98.31%; in assay [1] (replicate R3, 15 min), 83.72%; in assay [1] (replicate R3, 30 min), 80.54%; in assay [1] (replicate R3, 60 min), 75.94%; in assay [1] (replicate R3, 120 min) it was 52.91%; in assay [1] (replicate R3, 240 min), 49.81%. Moreover, the “% residual compound, HRMS” value worked out at 73.35% in assay [2] (30 min with Cathepsin B), 68.45% in assay [2] (60 min with Cathepsin B), 65.40% in assay [2] (120 min with Cathepsin B) and 63.70% in assay [2] (240 min (4 h) with Cathepsin B). Moreover, the results for the “% residual compound, HPLC” value in assay [2] (30 min with Cathepsin B), in assay [2] (60 min with Cathepsin B) and in assay [2] (120 min with Cathepsin B) were 25.11%, 20.48% and 13.68%, respectively.
